Measurements from US10781224B2, “Bis(oxymethyl)phosphinic acid and biogenic metal salts thereof as regulators of plant growth and development” (priority 2016, dated 2020).

Test system: winter wheat (Vershin variety)
Assay: Winter wheat seed treatment with BHMPA salts: germinating power (length and mass of roots and sprouts)
Type: in vivo
Outline: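 Seeds (50 per Petri dish on two layers of filter paper) soaked 1 h in BHMPA or its Ca, Mg, Na, Co, Mn, Cu or Zn salts at 1·10^−6-1·10^−12%, with water controls. Germination energy read on day 4, germination on day 8 (wheat) or day 7 (rice, corn), as % means of four replicates. Germinating power taken as root and sprout length plus wet and dry mass per 100 seedlings.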

[1] = comparative study, 1·10^−9% solution

O.O.O=P([O-])(CO)CO.O=P([O-])(CO)CO.[Mn+2] [Mn-salt, Manganese BHMPA Salt]
Length, root (1·10^−6% solution): 2.8 cm | Length, root, + % to control (1·10^−6% solution): −7% | Length, sprout (1·10^−6% solution): 3.4 cm | Length, sprout, + % to control (1·10^−6% solution): −5.5% | Mass, dry, root (1·10^−6% solution): 0.32 g/100 plantlings | Mass, dry, root, + % to control (1·10^−6% solution): −2% | Mass, dry, sprout (1·10^−6% solution): 0.44 g/100 plantlings | Mass, dry, sprout, + % to control (1·10^−6% solution): −10% | Mass, wet, root (1·10^−6% solution): 1.38 g/100 plantlings | Mass, wet, root, + % to control (1·10^−6% solution): −9% | Mass, wet, sprout (1·10^−6% solution): 3.37 g/100 plantlings | Mass, wet, sprout, + % to control (1·10^−6% solution): −6% | germinating power results vs control (1·10^−6% solution): lower than those of the control | Length, root (1·10^−7% solution): 3.8 cm | Length, root, + % to control (1·10^−7% solution): 27% | Length, sprout (1·10^−7% solution): 4.8 cm | Length, sprout, + % to control (1·10^−7% solution): 33% | Mass, dry, root (1·10^−7% solution): 0.50 g/100 plantlings | Mass, dry, root, + % to control (1·10^−7% solution): 35% | Mass, dry, sprout (1·10^−7% solution): 0.58 g/100 plantlings | Mass, dry, sprout, + % to control (1·10^−7% solution): 18% | Mass, wet, root (1·10^−7% solution): 1.74 g/100 plantlings | Mass, wet, root, + % to control (1·10^−7% solution): 14.5% | Mass, wet, sprout (1·10^−7% solution): 3.84 g/100 plantlings | Mass, wet, sprout, + % to control (1·10^−7% solution): 7% | Length, root (1·10^−8% solution): 4.4 cm | Length, root, + % to control (1·10^−8% solution): 47% | Length, sprout (1·10^−8% solution): 6.0 cm | Length, sprout, + % to control (1·10^−8% solution): 67% | Mass, dry, root (1·10^−8% solution): 0.53 g/100 plantlings | Mass, dry, root, + % to control (1·10^−8% solution): 43% | Mass, dry, sprout (1·10^−8% solution): 0.67 g/100 plantlings | Mass, dry, sprout, + % to control (1·10^−8% solution): 37% | Mass, wet, root (1·10^−8% solution): 2.09 g/100 plantlings | Mass, wet, root, + % to control (1·10^−8% solution): 37.5% | Mass, wet, sprout (1·10^−8% solution): 4.52 g/100 plantlings | Mass, wet, sprout, + % to control (1·10^−8% solution): 25.5% | Length, root (1·10^−9% solution): 4.6 cm | Length, root, + % to control (1·10^−9% solution): 53% | Length, sprout (1·10^−9% solution): 7.9 cm | Length, sprout, + % to control (1·10^−9% solution): 119% | Mass, dry, root (1·10^−9% solution): 0.62 g/100 plantlings | Mass, dry, root, + % to control (1·10^−9% solution): 67.5% | Mass, dry, sprout (1·10^−9% solution): 0.84 g/100 plantlings | Mass, dry, sprout, + % to control (1·10^−9% solution): 71% | Mass, wet, root (1·10^−9% solution): 3.00 g/100 plantlings | Mass, wet, root, + % to control (1·10^−9% solution): 97% | Mass, wet, sprout (1·10^−9% solution): 5.09 g/100 plantlings | Mass, wet, sprout, + % to control (1·10^−9% solution): 41% | Length, root (1·10^−10% solution): 4.5 cm | Length, root, + % to control (1·10^−10% solution): 50% | Length, sprout (1·10^−10% solution): 7.1 cm | Length, sprout, + % to control (1·10^−10% solution): 97% | Mass, dry, root (1·10^−10% solution): 0.57 g/100 plantlings | Mass, dry, root, + % to control (1·10^−10% solution): 54% | Mass, dry, sprout (1·10^−10% solution): 0.80 g/100 plantlings | Mass, dry, sprout, + % to control (1·10^−10% solution): 63% | Mass, wet, root (1·10^−10% solution): 2.16 g/100 plantlings | Mass, wet, root, + % to control (1·10^−10% solution): 142% | Mass, wet, sprout (1·10^−10% solution): 4.60 g/100 plantlings | Mass, wet, sprout, + % to control (1·10^−10% solution): 28% | Length, root (1·10^−11% solution): 4.4 cm | Length, root, + % to control (1·10^−11% solution): 47% | Length, sprout (1·10^−11% solution): 6.1 cm | Length, sprout, + % to control (1·10^−11% solution): 69% | Mass, dry, root (1·10^−11% solution): 0.52 g/100 plantlings | Mass, dry, root, + % to control (1·10^−11% solution): 40.5% | Mass, dry, sprout (1·10^−11% solution): 0.75 g/100 plantlings | Mass, dry, sprout, + % to control (1·10^−11% solution): 53% | Mass, wet, root (1·10^−11% solution): 1.90 g/100 plantlings | Mass, wet, root, + % to control (1·10^−11% solution): 34% | Mass, wet, sprout (1·10^−11% solution): 4.00 g/100 plantlings | Mass, wet, sprout, + % to control (1·10^−11% solution): 11% | Length, root (1·10^−12% solution): 3.6 cm | Length, root, + % to control (1·10^−12% solution): 20% | Length, sprout (1·10^−12% solution): 5.2 cm | Length, sprout, + % to control (1·10^−12% solution): 44% | Mass, dry, root (1·10^−12% solution): 0.40 g/100 plantlings | Mass, dry, root, + % to control (1·10^−12% solution): 8% | Mass, dry, sprout (1·10^−12% solution): 0.69 g/100 plantlings | Mass, dry, sprout, + % to control (1·10^−12% solution): 31% | Mass, wet, root (1·10^−12% solution): 1.52 g/100 plantlings | Mass, wet, root, + % to control (1·10^−12% solution): 0% | Mass, wet, sprout (1·10^−12% solution): 3.48 g/100 plantlings | Mass, wet, sprout, + % to control (1·10^−12% solution): −3% | Length, root [1]: 9.8 cm | Length, root, + % to control [1]: 13% | Length, sprout [1]: 6.7 cm | Length, sprout, + % to control [1]: 8% | Mass, dry, root [1]: 0.66 g/100 plantlings | Mass, dry, root, + % to control [1]: 6% | Mass, dry, sprout [1]: 0.55 g/100 plantlings | Mass, dry, sprout, + % to control [1]: 8% | Mass, wet, root [1]: 5.69 g/100 plantlings | Mass, wet, root, + % to control [1]: 57% | Mass, wet, sprout [1]: 4.97 g/100 plantlings | Mass, wet, sprout, + % to control [1]: 25%
